Measurements reported in patent publication US11925624B2, “Methods of administering anti-fibrotic therapy” (GENENTECH, INC., priority 2016, dated 2024).
Like-named read-outs stand apart in the source and are kept apart here.

Assay: Phase 1 Part A proton pump inhibitor (rabeprazole) effect on single-dose pharmacokinetics
Assay type: in vivo, human
Conditions: for AUC0-t (norm) / AUC0-∞ (norm) / CL/F / CL/F(norm) / Cmax (norm) / λZ / % AUCextrap / AUC(0-inf) / AUC(0-t) / Cmax / half-life / Tmax / Vd/F: +20 mg Rabeprazole QD x 3; for % AUCextrap: arithmetic mean; for AUC(0-inf) / AUC(0-t) / Cmax / half-life / Tmax / Vd/F: human, plasma, oral; for Tmax: median
Description: This study was a randomized, blinded, placebo-controlled, ascending-dose study to evaluate the safety, tolerability, and pharmacokinetic (PK) of single (Part A) and multiple (Part B) doses of Compound I in healthy subjects. In addition, the effects of a standard high-fat breakfast, standard low-fat breakfast, and pretreatment and co-administration of a proton pump inhibitor (PPI) on the tolerability and PK of a single dose of Compound I were investigated in 2 groups in Part A. All subjects received their full dose of Compound I, administered as the appropriate number of either 25 or 200 mg tablets. The high fat breakfast comprised the following: total energy: 895 kcal; total fat: 61 g; total protein: 41 g; total carbohydrate: 46 g. The low fat breakfast comprised the following: total energy: 611 kcal; total fat: 14.7 g; total protein: 20.3 g; total carbohydrate: 106.3 g.
For Group A4, doses (400 mg Compound I or placebo) during Treatment Period 1 were administered in a fasted state on the morning of Day 1. Doses in Treatment Period 2 were administered 30 minutes after starting, and within approximately 10 minutes of completing, a high-fat standard breakfast on the morning of Day 1. Doses during Treatment Period 3 were administered 30 minutes after starting, and within approximately 10 minutes of completing a low-fat standard meal on the morning of Day 1. Doses during Treatment Period 4 were administered on Day 1 after an overnight fast and following administration of a PPI (rabeprazole 20 mg) for 3 days (given as 3 daily [QD] doses, with the final PPI dose at 2 hours prior to study drug administration on Day 1). Subjects in Group A4 received the same Compound I or placebo treatment in all treatment periods, such that each subject received up to 4 single doses of Compound I or placebo.
For Group A5, doses (800 mg Compound I or placebo) during Treatment Period 1 were administered in a fasted state on the morning of Day 1, doses during Treatment Period 2 were administered 30 minutes after starting a low-fat standard breakfast on the morning of Day 1, and doses during Treatment Period 3 were administered on Day 1 after a low-fat meal and following administration of a PPI (rabeprazole 20 mg) for 3 days (given as 3 QD doses, with the final PPI dose at 2 hours prior to study drug administration on Day 1). Subjects in Group A5 received the same Compound I or placebo treatment in all treatment periods, such that each subject received up to 3 single doses of Compound I or placebo.
In Part A, all doses in Treatment Period 1 were administered after an overnight fast of at least 8 hours. For the A4 cohort, in Treatment Periods 2 and 3, doses were administered 30 minutes after starting and approximately 10 minutes after completing a high- or low-fat breakfast. In Treatment Period 4, the dose was administered after an overnight fast and following administration of a PPI (PPI was comprised of 3 doses of rabeprazole 20 mg, starting on Day −2 and with the final dose 2 hours before Compound I administration on Day 1). For Group A5, doses during Treatment Period 2 were administered 30 minutes after starting and approximately 10 minutes after completing a low-fat standard breakfast on the morning of Day 1, and doses during Treatment Period 3 were administered on Day 1 after a low-fat meal and following administration of a PPI for 3 days (given as 3 QD doses, with the final PPI dose at 2 hours prior to study drug administration on Day 1).

[1] = 400 mg Fasted + 20 mg Rabeprazole QD x 3 (Test) vs 400 mg Fasted (Reference)
[2] = 400 mg single dose (A4), Fasted
[3] = 800 mg Fed, Low-fat + 20 mg Rabeprazole QD x 3 (Test) vs 800 mg Fed, Low-fat (Reference)
[4] = 800 mg single dose (A5), Fed, Low-fat
[5] = pretreatment and co-administration of 20 mg rabeprazole (QD×3), low-fat fed state, compared to Compound I alone

Test/Reference ratio of LS means, AUC0-t [1]: 86.4%
Test/Reference ratio of LS means, AUC0-∞ [1]: 87.2%
Test/Reference ratio of LS means, Cmax [1]: 83.6%
AUC0-t (norm) [2]: 8130 (hr*ng/mL)/(mg/kg)
AUC0-∞ (norm) [2]: 8410 (hr*ng/mL)/(mg/kg)
CL/F [2]: 139 mL/min
CL/F(norm) [2]: 1.98 (mL/min)/kg
Cmax (norm) [2]: 660 ng/mL/mg/kg
λZ [2]: 0.0603 h⁻¹
% AUCextrap [2]: 3.25%
Test/Reference ratio of LS means, AUC0-t [3]: 76.5%
Test/Reference ratio of LS means, AUC0-∞ [3]: 77.2%
Test/Reference ratio of LS means, Cmax [3]: 75.0%
AUC0-t (norm) [4]: 11000 (hr*ng/mL)/(mg/kg)
AUC0-∞ (norm) [4]: 11100 (hr*ng/mL)/(mg/kg)
CL/F [4]: 108 mL/min
CL/F(norm) [4]: 1.50 (mL/min)/kg
Cmax (norm) [4]: 900 ng/mL/mg/kg
λZ [4]: 0.0666 h⁻¹
% AUCextrap [4]: 1.27%
AUC(0-inf) [2]: 48100 ng·h/mL
AUC(0-t) [2]: 46500 ng·h/mL
Cmax [2]: 3770 ng/mL
half-life [2]: 10.5 h
Tmax [2]: 2.5 h
Vd/F (400 mg single dose (A4), Fasted, read-out: Vz/F): 138 L
Vd/F (400 mg single dose (A4), Fasted, read-out: Vz/F(norm)): 1.97 L/kg
AUC(0-inf) [4]: 124000 ng·h/mL
AUC(0-t) [4]: 122000 ng·h/mL
Cmax [4]: 10000 ng/mL
half-life [4]: 8.92 h
Tmax [4]: 3 h
Vd/F (800 mg single dose (A5), Fed, Low-fat, read-out: Vz/F): 97.2 L
Vd/F (800 mg single dose (A5), Fed, Low-fat, read-out: Vz/F(norm)): 1.35 L/kg
Decrease in AUC0-t [5]: 23.5%
Decrease in AUC0-∞ [5]: 22.8%
Decrease in Cmax [5]: 25.0%
SMILES: Cn1cc(-c2cn(-c3ccc(OC(F)(F)F)cc3)c(=O)c3ncn(C)c23)cn1 [Compound I]
